Results reported in US20240270821A1, “GIP/GLP1/GCG TRI-RECEPTOR AGONISTS AND USES THEREOF” (priority 2023, published 2024).
pEC50: −log10 of the molar value. Starred links: 1 amine or outer side, 2 acyl side, 3 side chain; linkers in the order of their positions; H or OH if unused. Non-standard residues stand in square brackets, D forms with d. Groups on a side chain read outwards from the residue. *: point of attachment. C18 diacid = O=C(O)CCCCCCCCCCCCCCCCC(=O)*; γGlu = O=C(O)[C@H](CCC(=O)[*:2])N[*:1]; 4Pal = N[C@@H](Cc1ccncc1)C(=O)O; αMeL = CC(C)C[C@](C)(N)C(=O)O; Orn = NCCC[C@H](N)C(=O)O; AEEA = NCCOCCOCC(=O)O; Aib = CC(C)(N)C(=O)O

How the values were obtained:
hGLP-1R [1] = target: T1, hGLP-1R (Homo sapiens, UniProt P43220); assay: Functional cAMP activation in the presence of 0.1% casein (no HSA); assay type: cell-based; conditions: in the presence of 0.1% casein (no HSA); geometric mean; read-out: Relative cAMP EC50, hGLP-1R;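 note: intracellular cAMP rise after 30 min at 37 °C read by HTRF, normalized between buffer only (0%) and maximal control ligand (100%), four-parameter variable-slope fit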
T1 sequence (P43220 24-463): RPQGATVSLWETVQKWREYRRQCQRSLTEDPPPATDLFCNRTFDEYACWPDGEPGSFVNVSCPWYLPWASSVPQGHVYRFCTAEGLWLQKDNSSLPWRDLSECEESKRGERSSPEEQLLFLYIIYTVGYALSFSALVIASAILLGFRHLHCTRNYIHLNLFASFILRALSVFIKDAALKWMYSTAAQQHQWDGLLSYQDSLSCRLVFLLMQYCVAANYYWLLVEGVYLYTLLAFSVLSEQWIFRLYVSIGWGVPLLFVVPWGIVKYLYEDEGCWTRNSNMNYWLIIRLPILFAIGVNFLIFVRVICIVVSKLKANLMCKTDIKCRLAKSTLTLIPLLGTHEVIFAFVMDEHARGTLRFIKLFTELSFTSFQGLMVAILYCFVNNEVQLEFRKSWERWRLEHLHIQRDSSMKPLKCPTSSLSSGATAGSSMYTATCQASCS

hGIPR [2] = target: T2, hGIPR (Homo sapiens, UniProt P48546); assay: Functional cAMP activity in the presence of 1% HSA; assay type: cell-based; conditions: read-out: cAMP Rel EC50, hGIPR
T2 sequence (P48546 22-466): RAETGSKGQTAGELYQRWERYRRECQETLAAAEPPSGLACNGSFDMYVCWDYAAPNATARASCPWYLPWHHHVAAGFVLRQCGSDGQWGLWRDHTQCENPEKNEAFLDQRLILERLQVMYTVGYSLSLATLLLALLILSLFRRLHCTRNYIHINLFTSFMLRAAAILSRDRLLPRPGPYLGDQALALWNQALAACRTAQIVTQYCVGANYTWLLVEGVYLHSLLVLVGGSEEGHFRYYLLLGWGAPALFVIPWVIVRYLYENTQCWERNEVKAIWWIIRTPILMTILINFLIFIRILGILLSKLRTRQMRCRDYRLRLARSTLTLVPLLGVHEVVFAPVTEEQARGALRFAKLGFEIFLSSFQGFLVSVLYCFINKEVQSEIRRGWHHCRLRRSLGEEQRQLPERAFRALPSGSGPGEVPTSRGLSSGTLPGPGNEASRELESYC

hGIPR [3] = target: T2, hGIPR; assay: Functional cAMP activation in the presence of 0.1% casein (no HSA); assay type: cell-based; conditions: in the presence of 0.1% casein (no HSA); geometric mean; read-out: Relative cAMP EC50, hGIPR;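 note: intracellular cAMP rise after 30 min at 37 °C read by HTRF against a standard curve, scaled between buffer alone (0%) and top control ligand concentration (100%), four-parameter fit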
hGLP-1R [4] = target: T1, hGLP-1R; assay: Functional cAMP activity in the presence of 1% HSA; assay type: cell-based; conditions: read-out: cAMP Rel EC50, hGLP-1R
human GLP1-R = human GLP1-R (Homo sapiens, UniProt P43220); assay: GLP1-R internalization assay in HEK293 cells; assay type: cell-based; conditions: for pEC50: HEK293 cells expressing SNAP-GLP-1R, read-out: GLP1R Internalization EC50; for Internalization % TOP: normalized to maximum concentration of GLP-1 (100%)
Chain of human GLP1-R (P43220 24-463): as the sequence (P43220 24-463) above

hGcgR = hGcgR (Homo sapiens, UniProt P47871); assay: Functional cAMP activation in the presence of 0.1% casein (no HSA); assay type: cell-based; conditions: in the presence of 0.1% casein (no HSA); geometric mean; read-out: Relative cAMP EC50, hGcgR;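 note: intracellular cAMP rise after 30 min at 37 °C, read by HTRF against a cAMP standard curve, scaled from buffer only (0%) to maximal control ligand response (100%)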
Chain of hGcgR (P47871 26-477): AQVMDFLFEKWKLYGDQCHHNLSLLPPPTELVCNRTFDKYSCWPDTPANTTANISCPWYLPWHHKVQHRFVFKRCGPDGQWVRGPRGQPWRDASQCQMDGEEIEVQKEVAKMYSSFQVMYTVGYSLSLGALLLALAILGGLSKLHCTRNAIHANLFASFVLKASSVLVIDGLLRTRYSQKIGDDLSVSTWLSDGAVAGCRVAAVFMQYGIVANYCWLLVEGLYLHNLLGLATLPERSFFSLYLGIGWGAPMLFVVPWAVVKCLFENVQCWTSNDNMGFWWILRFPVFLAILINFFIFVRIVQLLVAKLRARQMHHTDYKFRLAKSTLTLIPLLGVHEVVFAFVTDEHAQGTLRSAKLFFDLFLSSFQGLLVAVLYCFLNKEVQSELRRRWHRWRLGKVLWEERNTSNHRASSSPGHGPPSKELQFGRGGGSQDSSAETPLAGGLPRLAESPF

[5] = tested on: Intestinal organoid from Göttingen minipig jejunum tissue, 2D monolayer; assay: Cell based in vitro permeability (Papp) assay; assay type: in vitro ADME
Experimental: Intestinal organoid from Göttingen minipig jejunum tissue and its 2D monolayer are generated using the protocol previously described ([…]-Thiele, […].; Wells, J. M., Optimized procedures for generating an enhanced, near physiological 2D culture system from porcine intestinal organoids. […] After 7 days of culture, organoids are dissociated into single cells by TrypLE (GIbco), and the single cell suspension is added in 24-well transparent transwell inserts (0.3 cm^2, Falcon, BD). […] Samples from the basal compartment are collected at 20 min in the presence of C10. Peptide concentrations in the apical and basal compartments are measured by LC/MS, and the apparent permeability coefficient (Papp) is calculated as previously described (Twarog, C.; Liu, K.; O'Brien, P. J.; Dawson, […] head-to-head Caco-2 assay comparison of the mechanisms of action of the intestinal permeation enhancers: SNAC and sodium caprate (C10).

human GcgR = human GcgR (Homo sapiens, UniProt P47871); assay: Functional cAMP activity in the presence of 1% HSA; assay type: cell-based; conditions: read-out: cAMP Rel EC50, hGcgR
Chain of human GcgR (P47871 26-477): as above

Row | Compound | pEC50 (hGLP-1R [1]) | pEC50 (hGIPR [2]) | pEC50 (hGIPR [3]) | pEC50 (hGLP-1R [4]) | pEC50 (human GLP1-R) | Internalization % TOP (human GLP1-R) [%] | pEC50 (hGcgR) | Relative Papp (Compared to internal standard) [5] | pEC50 (human GcgR)
1 | CC[C@H](C)[C@H](NC(=O)[C@H](Cc1ccccc1)NC(=O)[C@H](C)NC(=O)C(C)(C)NC(=O)[C@H](CCC(N)=O)NC(=O)[C@H](C)NC(=O)[C@H](CCCCNC(=O)CC[C@H](NC(=O)CC[C@H](NC(=O)CCCCCCCCCCCCCCCCC(=O)O)C(=O)O)C(=O)O)NC(=O)[C@H](CCCCN)NC(=O)[C@H](CC(=O)O)NC(=O)[C@H](CC(C)C)NC(=O)[C@](C)(CC(C)C)NC(=O)[C@H](CCCN)NC(=O)[C@H](CO)NC(=O)[C@H](Cc1ccccc1)NC(=O)[C@H](CC(=O)O)NC(=O)[C@H](CO)NC(=O)[C@@H](NC(=O)[C@H](Cc1ccccc1)NC(=O)[C@@H](NC(=O)CNC(=O)[C@H](CCC(N)=O)NC(=O)C(C)(C)NC(=O)[C@@H](N)Cc1ccc(O)cc1)[C@@H](C)O)[C@@H](C)O)C(=O)N[C@@H](CCC(=O)O)C(=O)N[C@@H](Cc1ccc(O)cc1)C(=O)N[C@@H](CC(C)C)C(=O)N[C@@H](CC(C)C)C(=O)N[C@@H](CCC(=O)O)C(=O)N[C@H](C)C(=O)NCC(=O)N1CCC[C@H]1C(=O)N[C@@H](CO)C(=O)N[C@@H](CO)C(=O)NCC(=O)N[C@@H](C)C(=O)N1CCC[C@H]1C(=O)N1CCC[C@H]1C(=O)N1CCC[C@H]1C(=O)N[C@@H](CO)C(=O)NCC(=O)N[C@H](C(N)=O)[C@@H](C)O [Example 204] | 8.63 | 7.78 | 9.74 | 6.51 | 7.18 | 45.5 | 8.16 | 0.16 | 6.24
2 | CC[C@H](C)[C@H](NC(=O)[C@H](Cc1ccccc1)NC(=O)[C@H](C)NC(=O)C(C)(C)NC(=O)[C@H](CCC(N)=O)NC(=O)[C@H](C)NC(=O)[C@H](CCCCNC(=O)COCCOCCNC(=O)CC[C@H](NC(=O)CCCCCCCCCCCCCCCCC(=O)O)C(=O)O)NC(=O)[C@H](CCCCN)NC(=O)[C@H](CC(=O)O)NC(=O)[C@H](CC(C)C)NC(=O)[C@](C)(CC(C)C)NC(=O)[C@H](CCCN)NC(=O)[C@H](CO)NC(=O)[C@H](Cc1ccccc1)NC(=O)[C@H](CC(=O)O)NC(=O)[C@H](CO)NC(=O)[C@@H](NC(=O)[C@H](Cc1ccccc1)NC(=O)[C@@H](NC(=O)CNC(=O)[C@H](CCC(N)=O)NC(=O)C(C)(C)NC(=O)[C@@H](N)Cc1ccc(O)cc1)[C@@H](C)O)[C@@H](C)O)C(=O)N[C@@H](CCC(=O)O)C(=O)N[C@@H](Cc1ccc(O)cc1)C(=O)N[C@@H](CC(C)C)C(=O)N[C@@H](CC(C)C)C(=O)N[C@@H](CCC(=O)O)C(=O)N[C@H](C)C(=O)NCC(=O)N1CCC[C@H]1C(=O)N[C@@H](CO)C(=O)N[C@@H](CO)C(=O)NCC(=O)N[C@@H](C)C(=O)N1CCC[C@H]1C(=O)N1CCC[C@H]1C(=O)N1CCC[C@H]1C(=O)N[C@@H](CO)C(=O)NCC(=O)N[C@H](C(N)=O)[C@@H](C)O [Example 210] | 8.84 | 7.63 | 9.82 | 6.58 | 7.10 | 49.2 | 8.55 | 0.06 | 6.30
3 | H-Y[Aib]QGTFTSDFS[Orn][αMeL]LDKK([AEEA-AEEA-γGlu-C18 diacid])AQ[Aib]AFIEWLLEGGHSSGAPPPSGE-NH2 [Example 169] | 8.21 | 7.67 | 9.68 | 6.67 | 6.75 | 49.4 | 7.93 | 0.12 | 6.36
4 | H-Y[Aib]QGTFTSDFS[Orn][αMeL]LDKK([AEEA-AEEA-γGlu-C18 diacid])AQ[Aib]AFIEYLLE[Aib]GHSSGAPPPSGE-NH2 [Example 186] | 8.28 | 7.74 | 9.97 | 6.16 | 6.91 | 41.1 | 8.33 | 0.10 | 5.89
5 | H-Y[Aib]QGTFTSDFS[Orn][αMeL]LDKK([AEEA-AEEA-γGlu-C18 diacid])AQ[Aib]AFIEYLLE[Aib]GPSSGAPPPSGT-NH2 [Example 165] | 8.19 | 7.73 | 10.02 | 6.09 | 7.24 | 44.5 | 8.35 | 0.09 | 5.90
6 | H-Y[Aib]QGTFTSDFS[Orn][αMeL]LDKK([AEEA-AEEA-γGlu-C18 diacid])AQ[Aib]AFIEYLLE[Aib]G[4Pal]SSGAPPPSGE-NH2 [Example 189] | 8.35 | 7.65 | 10.16 | 6.37 | 6.99 | 45.8 | 8.20 | 0.17 | 6.07
7 | H-Y[Aib]QGTFTSDFS[Orn][αMeL]LDKK([AEEA-γGlu-C18 diacid])AQ[Aib]AFIEWLLEGGPSSGAPPPTGS-NH2 [Example 250] | 8.68 | 7.93 | 9.81 | 6.71 | 7.01 | 45 | 8.42 | 0.11 | 6.70
8 | H-Y[Aib]QGTFTSDFS[Orn][αMeL]LDKK([AEEA-γGlu-C18 diacid])AQ[Aib]AFIEWLLEGGSSSGAPPPSGT-NH2 [Example 174] | 8.63 | 7.68 | 9.70 | 6.68 | 6.91 | 52.8 | 8.37 | 0.12 | 6.51
9 | H-Y[Aib]QGTFTSDFS[Orn][αMeL]LDKK([AEEA-γGlu-C18 diacid])AQ[Aib]AFIEYLLE[Aib]GHSSGAPPPSGS-NH2 [Example 241] | 8.64 | 8.03 | 10.13 | 6.58 | 7.19 | 37.6 | 8.57 | 0.10 | 6.27
10 | H-Y[Aib]QGTFTSDFS[Orn][αMeL]LDKK([AEEA-γGlu-C18 diacid])AQ[Aib]AFIEYLLE[Aib]GPSS[Aib]APPPSGS-NH2 [Example 238] | 8.57 | 8.06 | 10.04 | 6.58 | 7.49 | 38.2 | 8.56 | 0.06 | 6.48
11 | H-Y[Aib]QGTFTSDFS[Orn][αMeL]LDKK([AEEA-γGlu-C18 diacid])AQ[Aib]AFIEYLLE[Aib]G[4Pal]SSGAPPPSGS-NH2 [Example 242] | 8.47 | 8.23 | 10.04 | 6.62 | 7.25 | 38.2 | 8.46 | 0.07 | 6.32
12 | H-Y[Aib]QGTFTSDFS[Orn][αMeL]LDKK([AEEA-γGlu-C18 diacid])AQ[Aib]AFIEYLLE[dA]GPSSGAPPPSGS-NH2 [Example 209] | 8.75 | 7.63 | 9.89 | 6.56 | 7.08 | 41.2 | 8.51 | 0.08 | 6.36
13 | H-Y[Aib]QGTFTSDFS[Orn][αMeL]LDKK([AEEA-γGlu-C18 diacid])AQ[Aib]AFIEYLLE[dA]GPSSGAPPPSG[4Pal]-NH2 [Example 211] | 8.91 | 7.69 | 9.94 | 6.63 | 7.24 | 26.9 | 8.69 | 0.06 | 6.43
14 | H-Y[Aib]QGTFTSDFS[Orn][αMeL]LDKK([AEEA-γGlu-C18 diacid])AQ[Aib]AFIEYLLE[dA]GPSS[Aib]APPPSGT-NH2 [Example 214] | 8.91 | 7.82 | 9.99 | 6.73 | 7.30 | 41.7 | 8.60 | 0.07 | 6.52
